Values of other authors as cited in article PMC10544023, “Oxetanes in Drug Discovery Campaigns” (Journal of Medicinal Chemistry, 2023).

What was measured:
dog = tested on: dog; set-up: method as in ref 33a = [33]; a Crawford J. J.; Zhang H. In ACS Symposium Series; American Chemical Society , 2019; Vol. 1332 , pp 239 – 266 . b For an overview of all clinical trials and further investigations, see: Drug Bank; settings: dog pilot study; ref 33a
rat = tested on: rat; set-up: method as in ref 33a = [33]; a Crawford J. J.; Zhang H. In ACS Symposium Series; American Chemical Society , 2019; Vol. 1332 , pp 239 – 266 . b For an overview of all clinical trials and further investigations, see: Drug Bank; settings: rat pilot study; ref 33a
hERG = tested on: hERG; set-up: method as in PMID 24900569; settings: ref 37a
[1] = amine nitrogen; ref 37a
LRRK2 (WT) = tested on: LRRK2 (WT); set-up: method as in ref 49 = [49]; a Liang J.; Jakalian A.; Lambrecht M. J.; Larouche-Gauthier R.; Huestis M.; Ung M. U.; Wang X.; Yadav A.; Zbieg J. R.; Broccatelli F. Lactams as Cbl-b Inhibitors , WO Patent Appl. no. WO20221; settings: read-out: LRRK2 inhibitor (WT) IC50
c-KIT (V654A) = tested on: c-KIT (V654A); set-up: method as in ref 49 = [49]; a Liang J.; Jakalian A.; Lambrecht M. J.; Larouche-Gauthier R.; Huestis M.; Ung M. U.; Wang X.; Yadav A.; Zbieg J. R.; Broccatelli F. Lactams as Cbl-b Inhibitors , WO Patent Appl. no. WO20221
EZH2 = tested on: EZH2; set-up: method as in ref 49 = [49]; a Liang J.; Jakalian A.; Lambrecht M. J.; Larouche-Gauthier R.; Huestis M.; Ung M. U.; Wang X.; Yadav A.; Zbieg J. R.; Broccatelli F. Lactams as Cbl-b Inhibitors , WO Patent Appl. no. WO20221; settings: read-out: EZH2 inhibitor IC50
KIT D816V = tested on: KIT D816V; set-up: method as in ref 49 = [49]; a Liang J.; Jakalian A.; Lambrecht M. J.; Larouche-Gauthier R.; Huestis M.; Ung M. U.; Wang X.; Yadav A.; Zbieg J. R.; Broccatelli F. Lactams as Cbl-b Inhibitors , WO Patent Appl. no. WO20221
PDGFRα D842V = tested on: PDGFRα D842V; set-up: method as in ref 49 = [49]; a Liang J.; Jakalian A.; Lambrecht M. J.; Larouche-Gauthier R.; Huestis M.; Ung M. U.; Wang X.; Yadav A.; Zbieg J. R.; Broccatelli F. Lactams as Cbl-b Inhibitors , WO Patent Appl. no. WO20221
T- versus B-cells = tested on: T- versus B-cells; set-up: method as in PMID 32292557; settings: selectivity of T- versus B-cells; ref 35a
LRRK2 = tested on: LRRK2; set-up: method as in ref 49 = [49]; a Liang J.; Jakalian A.; Lambrecht M. J.; Larouche-Gauthier R.; Huestis M.; Ung M. U.; Wang X.; Yadav A.; Zbieg J. R.; Broccatelli F. Lactams as Cbl-b Inhibitors , WO Patent Appl. no. WO20221; settings: read-out: LRRK2 inhibitor IC50
Cbl-b = tested on: Cbl-b; set-up: method as in ref 49 = [49]; a Liang J.; Jakalian A.; Lambrecht M. J.; Larouche-Gauthier R.; Huestis M.; Ung M. U.; Wang X.; Yadav A.; Zbieg J. R.; Broccatelli F. Lactams as Cbl-b Inhibitors , WO Patent Appl. no. WO20221; settings: read-out: Cbl-b inhibitor IC50

For `CN1CCN(c2ccc(Nc3cc(-c4cccc(N5CCc6c(sc7c6CC(C)(C)C7)C5=O)c4CO)cn(C)c3=O)nc2)CC1` [compound 4], the hepatotoxicity (dog) is listed as “high hepatotoxicity” and the hepatotoxicity (rat) is listed as “high hepatotoxicity”.

For `CCNC(=O)Nc1ccc(-c2nc3c(c(N4CCOC[C@@H]4C)n2)CCN(C2COC2)C3)cc1` [GDC-0349], the IC50 (hERG) is given as over 100000 nM and the pKaH [1] is given as 5.0.

In the case of `C[C@H](C(F)F)n1cc(Nc2ncc3cc(C#N)n([C@H]4COC[C@@H]4C)c3n2)c(OC2COC2)n1` [Sanofi WO 2022/263472 A1], the IC50 (LRRK2 (WT)) is given as 1 nM.

For `Cn1ncc(-c2ccc(CNc3cc(-c4cnc5cc(OCCN6CC7(COC7)C6)ccn45)ncn3)cc2)n1` [Merck WO 2021/013864 A1], the IC50 (c-KIT (V654A)) is listed as 3.3 nM.

In the case of `C[C@H]1CN(C2COC2)CCN1c1ccc(Nc2cc(-c3ccnc(N4CCn5c(cc6c5CC(C)(C)C6)C4=O)c3CO)cn(C)c2=O)nc1` [Fenebrutinib, fenebrutinib], the “pKaH (predicted)” value (piperazine ring) is given as 6.3.

In the case of `Cc1ccc2ccc(N[C@H]3CC[C@H](CNc4ncc(C(F)(F)C(=O)NC5COC5)cn4)CC3)nc2c1Cl` [Novartis WO 2022/033492 A1], the IC50 (EZH2) is listed as under 10 nM.

In the case of `C[C@](N)(c1ccc(F)cc1)c1cnc(N2CCN(c3ncnn4cc(-c5cnn(CC6COC6)c5)cc34)CC2)nc1` [Bluprint Medicines WO 2020/210293 A1], the IC50 (KIT D816V) is listed as under 4.5 nM and the IC50 (PDGFRα D842V) is listed as under 4.5 nM.

For `CCN1CCN(c2ccc(Nc3nc(-c4ccc5cn[nH]c5c4)cn4ccnc34)cc2)CC1` [4-ethyl-piperazine], the “calcd pKaH” value (piperazine analogues of entospletinib, ref 35a) is given as 8.0.

For `c1cn2cc(-c3ccc4cn[nH]c4c3)nc(Nc3ccc(N4CCN(C5COC5)CC4)cc3)c2n1` [oxetane on the 4-position], the T/B ratio (T- versus B-cells) is listed as 10.

In the case of `O=C1NCCCOc2ccc3[nH]nc(c3c2)-c2cc(cc(N3CCC4(COC4)C3)c2)CO1`, the IC50 (LRRK2) is listed as under 10 nM.

In the case of `CC(C)[C@@H]1CN(C)CCN1Cc1cc2c(c(C(F)(F)F)c1)CN(c1cc(C3(Cc4nncn4C)COC3)cc(OC3CCCC3)n1)C2=O` [Genentech WO 2022/169997 A1], the IC50 (Cbl-b) is listed as 5.5 nM.
